Tests used:
Experiment in all cases: Post-emergence efficacy, glasshouse pot test
Type in all cases: in vivo
Conditions in all cases: post-emergence application at 1000 g/ha; evaluated after 13 days; five point scale
[1] = test system: Alopecurus myosuroides (ALOMY)
Experimental: (§1) B1 Post-emergence Efficacy Seeds of a variety of test species are sown in standard soil in pots:—Solanum nigrum (SOLNI), Amaranthus retoflexus (AMARE), Setaria faberi (SETFA), Alopecurus myosuroides (ALOMY), Echinochloa crus-galli (ECHCG), Ipomoea hederacea (IPOHE). After 8 days cultivation (post-emergence) under controlled conditions in a glasshouse (at 24/16° C., day/night; 14 hours light; 65% humidity), the plants are sprayed with an aqueous spray solution derived from the formulation of the technical active ingredient in acetone/water (50:50) solution containing 0.5% Tween 20 (polyoxyethelyene sorbitan monolaurate, CAS RN 9005-64-5). Compounds are applied at 1000 g/ha. The test plants are then grown in a glasshouse under controlled conditions in a glasshouse (at 24/16° C., day/night; 14 hours light; 65% humidity) and watered twice daily. After 13 days, the test is evaluated for the percentage damage caused to the plant. The biological activities are shown below in Table 13, on a five point scale (5=80-100%; 4=60-79%; 3=40-59%; 2=20-39%; 1=0-19%).

[2] = test system: Amaranthus retoflexus (AMARE)
Experimental: as §1

[3] = test system: Echinochloa crus-galli (ECHCG)
Experimental: as §1

[4] = test system: Ipomoea hederacea (IPOHE)
Experimental: as §1

[5] = test system: Setaria faberi (SETFA)
Experimental: as §1

[6] = test system: Solanum nigrum (SOLNI)
Experimental: as §1

SMILES	percentage damage caused to the plant, ALOMY [1]	percentage damage caused to the plant, AMARE [2]	percentage damage caused to the plant, ECHCG [3]	percentage damage caused to the plant, IPOHE [4]	percentage damage caused to the plant, SETFA [5]	percentage damage caused to the plant, SOLNI [6]
C#CCn1c(=O)c(-c2c(F)ccc(Cl)c2OCc2ccccc2)c(OC(=O)C(C)C)c2cccnc21 [Compound 5.001]	1 (1=0-19%)	5 (5=80-100%)	3 (3=40-59%)	5 (5=80-100%)	2 (2=20-39%)	5 (5=80-100%)
O=c1c(-c2cccc(Cl)c2OCc2ccccc2)c(O)c2cccnc2n1CC(F)F [Compound 12.001]	1 (1=0-19%)	5 (5=80-100%)	1 (1=0-19%)	5 (5=80-100%)	1 (1=0-19%)	5 (5=80-100%)
C#CCn1c(=O)c(-c2c(F)ccc(Cl)c2OCc2ccccc2)c(O)c2c(OC)ccnc21 [Compound 6.002]	5 (5=80-100%)	5 (5=80-100%)	5 (5=80-100%)	5 (5=80-100%)	5 (5=80-100%)	5 (5=80-100%)
O=c1c(-c2cccc(Cl)c2OCc2ccccc2)c(O)c2nccnc2n1CC(F)F [Compound 12.003]	2 (2=20-39%)	5 (5=80-100%)	5 (5=80-100%)	5 (5=80-100%)	5 (5=80-100%)	5 (5=80-100%)
CC(C)C(=O)Oc1c(-c2c(F)ccc(Cl)c2OCc2ccccc2)c(=O)n(CC(F)F)c2ncccc12 [Compound 7.001]	1 (1=0-19%)	5 (5=80-100%)	1 (1=0-19%)	5 (5=80-100%)	1 (1=0-19%)	5 (5=80-100%)
C#CCn1c(=O)c(-c2cccc(Cl)c2OCc2ccccc2)c(O)c2cccnc21 [Compound 10.001]	1 (1=0-19%)	4 (4=60-79%)	1 (1=0-19%)	5 (5=80-100%)	1 (1=0-19%)	5 (5=80-100%)
CC(C)C(=O)Oc1c(-c2c(Cl)ccc(Cl)c2OCc2ccc(Cl)cc2)c(=O)n(CC(F)F)c2ncccc12 [Compound 3.003]	1 (1=0-19%)	5 (5=80-100%)	1 (1=0-19%)	5 (5=80-100%)	1 (1=0-19%)	5 (5=80-100%)
CC(C)C(=O)Oc1c(-c2c(Cl)ccc(Cl)c2OCc2ccccc2)c(=O)n(CC(F)F)c2ncccc12 [Compound 3.001]	2 (2=20-39%)	5 (5=80-100%)	2 (2=20-39%)	5 (5=80-100%)	1 (1=0-19%)	5 (5=80-100%)
Cc1ccc(COc2c(Cl)ccc(Cl)c2-c2c(OC(=O)C(C)C)c3cccnc3n(CC(F)F)c2=O)cc1 [Compound 3.004]	1 (1=0-19%)	4 (4=60-79%)	1 (1=0-19%)	5 (5=80-100%)	1 (1=0-19%)	5 (5=80-100%)
O=c1c(-c2c(F)ccc(Cl)c2OCc2ccccc2)c(O)c2cccnc2n1CC(F)F [Compound 8.001]	3 (3=40-59%)	5 (5=80-100%)	3 (3=40-59%)	5 (5=80-100%)	1 (1=0-19%)	5 (5=80-100%)
C#CCn1c(=O)c(-c2cccc(Cl)c2OCc2ccccc2)c(OC(=O)C(C)C)c2cccnc21 [Compound 9.001]	1 (1=0-19%)	3 (3=40-59%)	2 (2=20-39%)	5 (5=80-100%)	1 (1=0-19%)	5 (5=80-100%)
C#CCn1c(=O)c(-c2c(Cl)ccc(Cl)c2OCc2ccc(C)cc2)c(OC(=O)C(C)C)c2cccnc21 [Compound 1.004]	1 (1=0-19%)	5 (5=80-100%)	3 (3=40-59%)	3 (3=40-59%)	1 (1=0-19%)	5 (5=80-100%)
Cc1ccc(COc2c(Cl)ccc(Cl)c2-c2c(O)c3cccnc3n(CC(F)F)c2=O)cc1 [Compound 4.004]	2 (2=20-39%)	5 (5=80-100%)	2 (2=20-39%)	5 (5=80-100%)	1 (1=0-19%)	5 (5=80-100%)
C#CCn1c(=O)c(-c2c(Cl)ccc(Cl)c2OCc2ccccc2)c(O)c2cccnc21 [Compound 2.001, 3-(2-Benzyloxy-3,6-dichloro-phenyl)-4-hydroxy-1-prop-2-ynyl-1,8-naphthyridin-2-one]	5 (5=80-100%)	5 (5=80-100%)	5 (5=80-100%)	5 (5=80-100%)	5 (5=80-100%)	5 (5=80-100%)
COc1ccnc2c1c(O)c(-c1c(Cl)ccc(Cl)c1OCc1ccccc1)c(=O)n2CC(F)F [Compound 4.007]	3 (3=40-59%)	5 (5=80-100%)	3 (3=40-59%)	5 (5=80-100%)	2 (2=20-39%)	5 (5=80-100%)
O=c1c(-c2c(Cl)ccc(Cl)c2OCc2ccc(C(F)(F)F)cc2)c(O)c2cccnc2n1CC(F)F [Compound 4.006]	2 (2=20-39%)	5 (5=80-100%)	2 (2=20-39%)	5 (5=80-100%)	2 (2=20-39%)	5 (5=80-100%)
C#CCn1c(=O)c(-c2cccc(Cl)c2OCc2ccccc2)c(OC(=O)C(C)C)c2nccnc21 [Compound 9.003]	2 (2=20-39%)	4 (4=60-79%)	5 (5=80-100%)	5 (5=80-100%)	5 (5=80-100%)	5 (5=80-100%)
O=c1c(-c2c(Cl)ccc(Cl)c2OCc2ccccc2)c(O)c2cccnc2n1CC(F)F [Compound 4.001]	4 (4=60-79%)	5 (5=80-100%)	4 (4=60-79%)	5 (5=80-100%)	1 (1=0-19%)	5 (5=80-100%)
C#CCn1c(=O)c(-c2c(Cl)ccc(Cl)c2OCc2ccc(C(F)(F)F)cc2)c(O)c2cccnc21 [Compound 2.006]	4 (4=60-79%)	5 (5=80-100%)	5 (5=80-100%)	5 (5=80-100%)	5 (5=80-100%)	5 (5=80-100%)
C#CCn1c(=O)c(-c2c(Cl)ccc(Cl)c2OCc2ccc(Cl)cc2)c(OC(=O)C(C)C)c2cccnc21 [Compound 1.003]	1 (1=0-19%)	5 (5=80-100%)	4 (4=60-79%)	5 (5=80-100%)	3 (3=40-59%)	5 (5=80-100%)
C#CCn1c(=O)c(-c2c(F)ccc(Cl)c2OCc2ccccc2)c(OC(=O)C(C)C)c2nccnc21 [Compound 5.003]	2 (2=20-39%)	5 (5=80-100%)	2 (2=20-39%)	5 (5=80-100%)	5 (5=80-100%)	5 (5=80-100%)

Source: patent US9604983B2, “Herbicidal 3-(2-benzyloxyphenyl)-2,4-dihydroxy-1,8-naphthyridine derivatives” (SYNGENTA LIMITED, priority 2013, dated 2017)
